{
  "source": "patent US6608051B1",
  "about": "“Compositions and methods for treating blood” (MedPointe Healthcare Inc., priority 1999, dated 2003)",
  "key": {"[1]": {"test": "stability in the solid state", "format": "physicochemical", "details": "stored at ambient conditions"}, "[2]": {"test": "solubility in aqueous solutions and organic solvents", "format": "physicochemical"}, "[3]": {"details": "cited from earlier work"}, "[4]": {"test": "apparent partition coefficient between octanol and water", "format": "physicochemical", "details": "buffered at pH 7.2"}, "[5]": {"test": "pH of a saturated solution in deionized water", "format": "physicochemical"}},
  "data": [
    {"smiles": "O=S1(=O)CCN(CN2CCS(=O)(=O)NC2)CN1", "note": "[taurolidine, 4,4′-methylenebis(tetrahydro-1,2,4-thiadiazine)-1,1,1′,1′,-tetraoxide]", "values": [
      {"measurement": "stability in the solid state", "setting": "[1]", "result": "acceptable stability"},
      {"measurement": "solubility", "setting": "[2]; CHCl3", "result": "insoluble"},
      {"measurement": "solubility", "setting": "[2]; Dilute HCl", "result": "soluble"},
      {"measurement": "solubility", "setting": "[2]; Dilute NaOH", "result": "soluble"},
      {"measurement": "solubility", "setting": "[2]; EtOH", "result": "sparingly soluble"},
      {"measurement": "solubility", "setting": "[2]; Water, at 20° C.", "result": 1, "unit": "% at 20 °C"},
      {"measurement": "cumulative dose shown to be safe and well tolerated", "setting": "[3]; cumulative doses, up to and exceeding", "result": "≥ 300", "unit": "g"},
      {"measurement": "systemic dose shown to be safe and well tolerated", "setting": "[3]; systemic doses", "result": "exceeding 40 g/day"},
      {"measurement": "apparent partition coefficient between octanol and water", "setting": "[4]", "result": "approximately 0.13"},
      {"measurement": "pH of a saturated solution", "setting": "[5]", "result": 7.4}
    ]}
  ]
}
